This note sets out measurements from US20250388544A1, “HETEROAROMATIC INHIBITORS OF ASTACIN PROTEINASES” (VIVORYON THERAPEUTICS N.V., priority 2019, published 2025).

Assay type in all cases: biochemical
In assay [1] the target is T1, hMeprin α (Homo sapiens, UniProt Q16819).
T1 sequence (Q16819 66-746): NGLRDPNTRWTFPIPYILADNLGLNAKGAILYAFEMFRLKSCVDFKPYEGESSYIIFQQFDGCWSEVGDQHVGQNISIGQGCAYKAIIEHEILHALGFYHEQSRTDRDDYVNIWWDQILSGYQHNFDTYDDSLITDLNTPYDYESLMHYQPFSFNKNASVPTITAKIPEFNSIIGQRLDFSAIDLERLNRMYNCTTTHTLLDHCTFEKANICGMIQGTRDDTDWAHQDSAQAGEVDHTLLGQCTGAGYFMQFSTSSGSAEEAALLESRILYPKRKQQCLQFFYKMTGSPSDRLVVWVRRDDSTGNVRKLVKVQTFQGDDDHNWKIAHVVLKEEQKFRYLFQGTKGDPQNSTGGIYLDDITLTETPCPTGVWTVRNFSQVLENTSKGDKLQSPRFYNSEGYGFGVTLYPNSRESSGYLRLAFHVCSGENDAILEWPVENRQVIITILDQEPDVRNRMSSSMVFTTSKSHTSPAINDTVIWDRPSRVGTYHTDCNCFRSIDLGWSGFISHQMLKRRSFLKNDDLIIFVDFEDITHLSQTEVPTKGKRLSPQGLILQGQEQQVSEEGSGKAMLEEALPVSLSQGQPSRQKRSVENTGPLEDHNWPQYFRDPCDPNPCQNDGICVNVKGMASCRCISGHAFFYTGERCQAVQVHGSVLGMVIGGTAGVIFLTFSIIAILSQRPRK
Description: Enzymatic assay, quenched peptide substrate cleavage, method A. The note with it: geometric mean (geometric SD factor in parentheses), read-out: Meprin alpha IC50. How it is done: (§1) The determination of enzymatic activity was based on the cleavage of internally quenched peptide substrates. A typical assay of 250 μl total volume measured in black 96 well plates consisted of 100 μl buffer, 50 μl enzyme at a final concentration of 5e-8 M to 2e-10 M, 50 μl substrate (0.15 to 80 μM, in buffer, 0.5% DMSO) and 50 μl inhibitor solution (in buffer, 1% DMSO). In case of 125 μl assay volume (black 96 half area well plates) all volumes were cut in half. Enzymatic activity of ADAMs was measured in 384 well plates with 60 μl total assay volume consisting of 20 μl inhibitor, 20 μl buffer, 10 μl enzyme and 10 μl substrate.
(§2) Based on method B Ki^(app) values were determined using Morrison's equation. All measurements were performed using a fluorescence plate reader (FLUOSTAR OPTIMA, BMG Labtech) at 30° C. The kinetic parameters were determined at least in duplicates on separate days. The excitation/emission wavelength was 340/420 nm. The kinetic data was evaluated using GRAFIT software (version 7.0.3, Erithacus Software).

The target in assay [2] is T2, hMeprin β (Homo sapiens, UniProt Q16820).
T2 sequence (Q16820 62-701): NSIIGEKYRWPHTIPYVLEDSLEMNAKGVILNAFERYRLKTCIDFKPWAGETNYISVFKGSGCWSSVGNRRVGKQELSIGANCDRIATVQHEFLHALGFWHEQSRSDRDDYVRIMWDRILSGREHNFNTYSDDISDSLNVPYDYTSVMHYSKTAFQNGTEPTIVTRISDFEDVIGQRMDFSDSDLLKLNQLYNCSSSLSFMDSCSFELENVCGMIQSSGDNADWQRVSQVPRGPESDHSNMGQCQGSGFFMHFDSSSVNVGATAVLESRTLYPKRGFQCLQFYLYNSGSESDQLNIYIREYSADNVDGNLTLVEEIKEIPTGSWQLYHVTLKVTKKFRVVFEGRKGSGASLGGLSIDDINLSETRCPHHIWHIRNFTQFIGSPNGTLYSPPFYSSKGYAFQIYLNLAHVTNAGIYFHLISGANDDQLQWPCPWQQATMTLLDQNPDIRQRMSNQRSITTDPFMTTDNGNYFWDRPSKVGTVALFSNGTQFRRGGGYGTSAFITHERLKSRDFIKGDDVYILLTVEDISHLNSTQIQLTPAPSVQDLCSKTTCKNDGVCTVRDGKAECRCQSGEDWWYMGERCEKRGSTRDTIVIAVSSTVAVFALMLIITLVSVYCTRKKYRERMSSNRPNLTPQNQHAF
The description is as above. Conditions: geometric mean (geometric SD factor in parentheses), read-out: Meprin beta IC50. As for the experimental part:
as §1, §2

For assay [3], the target named is T1, hMeprin α. In words: Enzymatic assay, quenched peptide substrate cleavage, method B. Conditions: geometric mean (geometric SD factor in parentheses). As for the experimental part: as §1, §2
The target of assay [4] is T2, hMeprin β. The assay is described as above. The note with it: geometric mean (geometric SD factor in parentheses). How it is done: as §1, §2
The next assay deals with T3, hMMP 9 (Homo sapiens, UniProt P14780).
T3 construct: purchased R&D systems
Description: Residual enzyme activity of other metalloproteases. The note with it: read-out: Residual enzyme activity MMP9. How it is done: as §1
MMPs were activated prior to measurement by APMA (p-aminophenylmercuric acetate) treatment according to manufacturer's instructions (R&D systems).

The target of the next assay is T4, hADAM 10 (Homo sapiens, UniProt O14672).
T4 construct: purchased R&D systems
T4 sequence (O14672 214-748): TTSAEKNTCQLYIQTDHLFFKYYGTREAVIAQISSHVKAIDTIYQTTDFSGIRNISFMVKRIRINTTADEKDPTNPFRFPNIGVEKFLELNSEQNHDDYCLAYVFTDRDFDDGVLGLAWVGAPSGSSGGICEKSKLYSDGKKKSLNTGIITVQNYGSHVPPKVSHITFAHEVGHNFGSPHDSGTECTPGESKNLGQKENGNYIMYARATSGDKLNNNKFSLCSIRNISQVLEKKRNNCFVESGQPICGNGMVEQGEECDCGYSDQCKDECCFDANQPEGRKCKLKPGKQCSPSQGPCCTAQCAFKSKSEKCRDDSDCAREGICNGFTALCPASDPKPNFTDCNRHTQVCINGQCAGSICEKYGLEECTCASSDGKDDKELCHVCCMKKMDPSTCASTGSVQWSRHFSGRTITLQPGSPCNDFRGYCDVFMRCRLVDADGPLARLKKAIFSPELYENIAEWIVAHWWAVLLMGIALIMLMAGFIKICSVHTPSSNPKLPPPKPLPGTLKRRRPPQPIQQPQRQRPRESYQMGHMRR
Description: Residual enzyme activity of other metalloproteases. Conditions: read-out: Residual enzyme activity ADAM10. How it is done: as §1

A further assay has as its target T5, hADAM 17 (Homo sapiens, UniProt P78536).
T5 construct: purchased R&D systems
Description: Residual enzyme activity of other metalloproteases. The note with it: read-out: Residual enzyme activity ADAM17. How it is done: as §1

Usually IC50 stands for the concentration that inhibits the measured activity by half.

Structures are written as SMILES.

T5 sequence (P78536 215-824): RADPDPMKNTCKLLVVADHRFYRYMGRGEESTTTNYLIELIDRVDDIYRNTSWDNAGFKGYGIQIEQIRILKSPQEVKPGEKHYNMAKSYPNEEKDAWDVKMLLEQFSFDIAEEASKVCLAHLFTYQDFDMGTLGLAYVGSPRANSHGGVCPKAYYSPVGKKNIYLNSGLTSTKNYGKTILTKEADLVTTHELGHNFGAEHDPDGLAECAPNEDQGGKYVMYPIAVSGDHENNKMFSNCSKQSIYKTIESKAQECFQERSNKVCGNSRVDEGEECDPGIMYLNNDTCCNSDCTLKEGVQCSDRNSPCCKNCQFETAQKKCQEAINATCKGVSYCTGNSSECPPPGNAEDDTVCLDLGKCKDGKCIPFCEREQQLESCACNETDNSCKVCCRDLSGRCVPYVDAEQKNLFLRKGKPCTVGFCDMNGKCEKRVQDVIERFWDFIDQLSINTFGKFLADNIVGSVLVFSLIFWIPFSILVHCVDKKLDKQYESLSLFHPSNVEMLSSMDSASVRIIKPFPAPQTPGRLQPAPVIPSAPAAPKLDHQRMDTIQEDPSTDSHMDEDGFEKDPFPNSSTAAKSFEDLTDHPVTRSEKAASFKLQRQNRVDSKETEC
T3 sequence (P14780 107-707 limits assumed): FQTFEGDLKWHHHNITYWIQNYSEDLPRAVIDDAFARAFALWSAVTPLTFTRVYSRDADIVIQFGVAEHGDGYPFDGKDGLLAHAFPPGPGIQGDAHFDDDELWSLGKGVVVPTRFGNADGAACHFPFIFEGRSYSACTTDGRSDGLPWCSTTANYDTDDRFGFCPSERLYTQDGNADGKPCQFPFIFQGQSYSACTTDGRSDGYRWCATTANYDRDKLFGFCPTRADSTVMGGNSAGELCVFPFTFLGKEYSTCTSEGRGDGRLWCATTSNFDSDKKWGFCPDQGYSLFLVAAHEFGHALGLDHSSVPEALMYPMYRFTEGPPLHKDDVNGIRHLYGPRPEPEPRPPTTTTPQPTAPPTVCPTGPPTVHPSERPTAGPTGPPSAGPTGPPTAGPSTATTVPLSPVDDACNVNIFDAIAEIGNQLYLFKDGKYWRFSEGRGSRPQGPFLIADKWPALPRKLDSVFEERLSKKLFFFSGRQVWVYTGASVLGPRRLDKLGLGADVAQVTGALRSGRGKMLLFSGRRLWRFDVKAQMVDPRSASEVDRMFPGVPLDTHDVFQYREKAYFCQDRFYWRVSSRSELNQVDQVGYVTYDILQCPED

With `O=C(Cn1nc(-c2ccccc2)cc1-c1ccccc1)NO` [Example 5, 2-(3,5-Diphenylpyrazol-1-yl)ethanehydroxamic acid], the half-maximal inhibitory concentration (IC50) was determined as 292 nM on hMeprin α [1] and 10500 nM on hMeprin β [2].
On the same counts, the results for `O=C(CCn1nc(-c2ccccc2)cc1-c1ccccc1)NO` [Example 6, 3-(3,5-Diphenylpyrazol-1-yl)propanehydroxamic acid] are 457 nM and 15400 nM.
For `O=C(CCn1c(-c2ccccc2)nnc1-c1ccccc1)NO` [Example 8, 3-(3,5-Diphenyl-1,2,4-triazol-4-yl)propanehydroxamic acid], the concentration for half-maximal inhibition (IC50) at hMeprin α [1] came to 353 nM; on hMeprin β [2] it was 42300 nM.
In the same order, the values of `O=C(CCn1c(-c2ccccc2)ccc1-c1ccccc1)NO` [Example 10, 3-(2,5-Diphenylpyrrol-1-yl)propanehydroxamic acid] are 727 nM and 15000 nM.
On to `O=C(Cc1c(-c2ccccc2)nnn1-c1ccccc1)NO` [Example 11, 2-(3,5-Diphenyltriazol-4-yl)ethanehydroxamic acid], for which the figures for the IC50 on hMeprin α [1] and at hMeprin β [2] were 11 nM and 1450 nM, respectively.
In the case of `O=C(Cc1c(-c2ccccc2)ncn1-c1ccccc1)NO` [Example 12, 2-(3,5-Diphenylimidazol-4-yl)ethanehydroxamic acid], the 50% inhibitory concentration (IC50) at hMeprin α [1] came to 2 nM; on hMeprin β [2], 486 nM.
In the same order, the values of `O=C(Cn1c(-c2ccccc2)nc2cccnc21)NO` [Example 23, 2-(2-Phenylimidazo[4,5-b]pyridin-3-yl)ethane-hydroxamic acid] are 273 nM and 4560 nM.
In the same order, the values of `O=C(CCn1c(-c2ccccc2)cc2ccccc21)NO` [Example 26, 3-(2-Phenylindol-1-yl)propanehydroxamic acid] are 475 nM and 13400 nM.
On the same counts, the results for `O=C(Cc1c(-c2ccccc2)[nH]c2ccccc12)NO` [Example 27, 2-(2-Phenyl-1H-indol-3-yl)ethanehydroxamic acid] are 105 nM and 1200 nM.
Consider `O=C(CNc1c(-c2ccccc2)nc2ccccn12)NO` [Example 29, 2-[(2-Phenylimidazo[1,2-a]pyridin-3-yl)amino]-ethanehydroxamic acid], for which the half-inhibitory concentration (IC50) at hMeprin α [1] stood at 793 nM; at hMeprin β [2] it was 7120 nM.
On the same counts, the results for `O=C(CNc1c(-c2ccc(C(=O)O)cc2)nc2ccccn12)NO` [Example 30, 4-[3-[[2-(Hydroxyamino)-2-oxo-ethyl]amino]-imidazo[1,2-a]pyridin-2-yl]benzoic acid] are 2280 nM and 176 nM.
For `O=C(CNc1c(-c2cccc(C(=O)O)c2)nc2ccccn12)NO` [Example 31, 3-[3-[[2-(Hydroxyamino)-2-oxo-ethyl]amino]-imidazo[1,2-a]pyridin-2-yl]benzoic acid], the concentration for half-maximal inhibition (IC50) at hMeprin α [1] was 693 nM; at hMeprin β [2] it was 214 nM.
On the same counts, the results for `O=C(CNc1c(-c2ccc3c(c2)OCCO3)nc2ccccn12)NO` [Example 32, 2-[[2-(2,3-Dihydro-1,4-benzodioxin-6-yl)imidazo-[1,2-a]pyridin-3-yl]amino]ethanehydroxamic acid] are 655 nM and 3140 nM.
In the same order, the values of `O=C(CNc1c(-c2ccccc2)nc2c(C(=O)O)cccn12)NO` [Example 33, 3-[[2-(Hydroxyamino)-2-oxo-ethyl]amino]-2-phenyl-imidazo[1,2-a]pyridine-8-carboxylic acid] are 6740 nM and 3100 nM.
With `O=C(Cc1c2ccccc2nn1-c1ccccc1)NO` [Example 34, 2-(2-Phenylindazol-3-yl)ethanehydroxamic acid], the results for the half-inhibitory concentration (IC50) on hMeprin α [1] and on hMeprin β [2] were 244 nM and 3370 nM, respectively.
`Cn1nc(-c2ccccc2)c(CC(=O)NO)c1-c1ccccc1` [Example 35, 2-(1-Methyl-3,5-diphenyl-pyrazol-4-yl)ethanehydroxamic acid]: the values for the IC50 at hMeprin α [1] and on hMeprin β [2] were 9 nM and 1220 nM, respectively.
Regarding `O=C(Cc1c(-c2ccccc2)nn(-c2ccccc2)c1-c1ccccc1)NO` [Example 36, 2-(1,3,5-Triphenylpyrazol-4-yl)ethanehydroxamic acid], the figures for the IC50 at hMeprin α [1] and on hMeprin β [2] were 17 nM and 2380 nM, respectively.
For the molecule `O=C(Cc1c(-c2ccccc2)nn(-c2ccc(C(=O)O)cc2)c1-c1ccccc1)NO` [Example 37, 4-[4-[2-(Hydroxyamino)-2-oxo-ethyl]-3,5-diphenyl-pyrazol-1-yl]benzoic acid], the figures for the IC50 at hMeprin α [1] and on hMeprin β [2] were 21 nM and 154 nM, respectively.
On the same counts, the results for `O=C(Cc1c(-c2ccccc2)nn(-c2cccc(C(=O)O)c2)c1-c1ccccc1)NO` [Example 38, 3-[4-[2-(Hydroxyamino)-2-oxo-ethyl]-3,5-diphenyl-pyrazol-1-yl]benzoic acid] are 16 nM and 100 nM.
Turning to `O=C(Cc1c(-c2ccccc2)nn(Cc2ccccc2)c1-c1ccccc1)NO` [Example 39, 2-(1-Benzyl-3,5-diphenyl-pyrazol-4-yl)ethanehydroxamic acid], the values for the IC50 at hMeprin α [1] and on hMeprin β [2] were 2 nM and 254 nM, respectively.
Consider `O=C(Cc1c(-c2ccc3c(c2)OCO3)n[nH]c1-c1ccc2c(c1)OCO2)NO` [Example 57, 2-[3,5-Bis(1,3-benzodioxol-5-yl)-1H-pyrazol-4-yl]ethanehydroxamic acid], for which the Ki on hMeprin α [3] (Morrison's equation, read-out: Meprin alpha Ki(app)) is 0.64 nM; on hMeprin β [4] (Morrison's equation, read-out: Meprin beta Ki(app)), 113 nM. Moreover, the half-inhibitory concentration (IC50) at hMeprin α [3] (read-out: Meprin alpha IC50) was 0.72 nM; on hMeprin β [4] (read-out: Meprin beta IC50), 119 nM. In addition, the remaining activity at 10 µM was found to be 63% on hMMP 9 (10 μM inhibitor), 62% on hADAM 10 (10 μM inhibitor) and 57% at hADAM 17 (10 μM inhibitor). Further, the values for the remaining activity at 200 µM at hMMP 9 (200 μM inhibitor), at hADAM 10 (200 μM inhibitor) and at hADAM 17 (200 μM inhibitor) were 10%, 0% and 4%, respectively.
